US20220380329A1, “A HYPERBRANCHED POLYGLYCEROL POLYGLYCIDYL ETHER AND ITS USE AS CROSSLINKER FOR POLYSACCHARIDES” (BIOPOLIMERI S.R.L., priority 2019, published 2022)

System: 3T3 mouse fibroblasts
Assay: MTT viability assay, cells grown in direct contact with the crosslinker
Assay type: cell-based
Conditions: direct contact with cross-linker solutions of same epoxy equivalents, without polysaccharide; control culture medium in NaCl 0.9%
Procedure: MTT assay was used to evaluate the viability of 3T3 mouse fibroblasts grown.
c) MTT assay on cells grown in direct contact with the crosslinker
The MTT assay was performed on cells grown in direct contact with a solution containing cross-linker solutions. The solution contains the same epoxy equivalents, following the same steps of the manufacturing process of hydrogels—such as chemical reaction, washing and sterilization, but without the addition of the polysaccharide.

## C(CCOCC1CO1)COCC1CO1 (stereo not shown) [BDDE, 1,4-butane diol diglycidyl ether]
  cell viability (MTT): significant decrease of cells viability and signs of suffering
